Source: patent US20100168100A1, “QUINOLINE DERIVATIVES AS P13 KINASE INHIBITORS” (SMITHKLINE BEECHAM CORPORATION, priority 2007, published 2010)

Key:
PI3Kα = molecular target: T1, PI3Kα (Homo sapiens, UniProt P42336); assay: PI3K Alpha Leadseeker SPA Assay; type: biochemical; settings: in at least one experimental run; read-out: IC50 against PI3Kα
T1 construct: His
Experimental: PI3K Alpha Leadseeker SPA Assay
Compounds of the present invention were tested according to the following assays and found as inhibitors of PI3 kinases, particularly PI3Kα. The exemplified compounds were tested and found active against PI3Kα. The IC50's ranged from about 1 nM to 10 μM.
SPA imaging beads are microspheres containing scintillant which emit light in the red region of the visible spectrum. As a result, these beads are ideally suited to use with a CCD imager such as the Viewlux. The Leadseeker beads used in this system are polystyrene beads that have been coupled with polyethyleneimine. When added to the assay mixture, the beads absorb both the substrate (PIP2) and product (PIP3). Adsorbed P^33-PIP3 will cause an increase in signal, measured as ADUs (analog to digital units). This protocol details the use of the PEI-PS Leadseeker beads for assays using His-p110/p85 PI3K alpha.
Solid compounds are typically plated with 0.1 μl of 100% DMSO in all wells (except column 6 and 18) of a 384-well, flat bottom, low volume plate (Greiner 784075). The compounds are serially diluted (3-fold in 100% DMSO) across the plate from column 1 to column 12 and column 13 to column 24 and leave column 6 and 18 containing only DMSO to yield 11 concentrations for each test compound.
The assay buffer contains MOPS (pH 6.5), CHAPS, and DTT. PI3K alpha and PIP2 (L-alpha-D-myo-Phosphatidylinositol 4,5-bisphosphate [PI(4,5)P2]3-O-phospho linked, D(+)-sn-1,2-di-O-octanoylglyceryl, CellSignals #901) are mixed and incubated in the plate with compound for 30 min prior to starting the reaction with the addition of P^33-ATP and MgCl2 (reagents added using Zoom). Enzyme-free wells (column 18) are typically done to determine the low control. PEI-PS Leadseeker beads in PBS/EDTA/CHAPS are added (by Multidrop) to quench the reaction, and the plates are allowed to incubate for at least one hour (typically overnight) before centrifugation. The signal is determined using a Viewlux detector and is then imported into curve fitting software (Activity Base) for construction of concentration response curves. The percent inhibition of activity is calculated relative to high controls (C1, 0.1 μl DMSO in column 6, rows A-P)) and low controls (C2, 5 μl of 40 uM PIP2 in buffer in column 18, rows A-P) using, 100*(1-(U1-C2)/(C1-C2)). The concentration of test compound yielding 50% inhibition is determined using the equation, y=((Vmax*x)/(K+x))+Y2, where “K” is equal to the IC50. The IC50 values are converted to pIC50 values, i.e., −log IC50 in Molar concentration.

CK2 protein kinase = CK2 protein kinase (Homo sapiens, UniProt P68400); settings: cited from earlier work
CK2 protein kinase, sequence (P68400 whole entry): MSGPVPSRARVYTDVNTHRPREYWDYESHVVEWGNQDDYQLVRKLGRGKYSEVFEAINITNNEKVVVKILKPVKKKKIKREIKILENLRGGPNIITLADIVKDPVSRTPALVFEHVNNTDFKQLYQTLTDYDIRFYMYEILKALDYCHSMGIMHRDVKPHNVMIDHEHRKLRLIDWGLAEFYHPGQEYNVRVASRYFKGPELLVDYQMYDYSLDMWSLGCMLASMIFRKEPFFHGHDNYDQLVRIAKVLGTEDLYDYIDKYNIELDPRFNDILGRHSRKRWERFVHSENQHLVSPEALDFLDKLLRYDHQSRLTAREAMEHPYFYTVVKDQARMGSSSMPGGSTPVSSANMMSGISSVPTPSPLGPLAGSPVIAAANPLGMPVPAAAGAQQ

T1 sequence (P42336 whole entry): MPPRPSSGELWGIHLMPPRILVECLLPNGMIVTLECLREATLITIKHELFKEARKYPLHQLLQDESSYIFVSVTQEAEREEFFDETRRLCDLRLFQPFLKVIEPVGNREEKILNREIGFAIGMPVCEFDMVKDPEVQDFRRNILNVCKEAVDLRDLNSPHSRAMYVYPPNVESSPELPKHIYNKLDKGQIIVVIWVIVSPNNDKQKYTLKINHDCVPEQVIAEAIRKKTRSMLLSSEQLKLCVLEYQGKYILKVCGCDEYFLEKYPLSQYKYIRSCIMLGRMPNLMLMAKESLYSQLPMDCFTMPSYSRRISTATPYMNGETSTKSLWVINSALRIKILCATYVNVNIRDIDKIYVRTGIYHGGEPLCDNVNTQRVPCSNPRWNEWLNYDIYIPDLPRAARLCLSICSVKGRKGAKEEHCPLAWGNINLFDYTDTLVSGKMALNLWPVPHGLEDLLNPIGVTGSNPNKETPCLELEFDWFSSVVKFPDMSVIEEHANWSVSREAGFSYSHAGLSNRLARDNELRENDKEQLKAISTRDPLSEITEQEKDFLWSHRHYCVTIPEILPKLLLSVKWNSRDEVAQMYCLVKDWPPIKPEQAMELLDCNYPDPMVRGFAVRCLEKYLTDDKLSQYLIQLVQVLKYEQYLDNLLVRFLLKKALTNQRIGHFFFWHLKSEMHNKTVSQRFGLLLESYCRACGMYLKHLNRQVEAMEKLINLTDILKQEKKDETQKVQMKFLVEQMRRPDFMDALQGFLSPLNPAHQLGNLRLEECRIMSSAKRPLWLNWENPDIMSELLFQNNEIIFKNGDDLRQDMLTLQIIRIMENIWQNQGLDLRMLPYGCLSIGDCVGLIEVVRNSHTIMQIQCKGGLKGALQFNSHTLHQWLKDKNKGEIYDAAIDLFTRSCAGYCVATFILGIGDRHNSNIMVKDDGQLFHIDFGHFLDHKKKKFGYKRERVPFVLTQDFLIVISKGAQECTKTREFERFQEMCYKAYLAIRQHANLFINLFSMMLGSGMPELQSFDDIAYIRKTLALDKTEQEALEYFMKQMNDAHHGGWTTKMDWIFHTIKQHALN
T1 sequence (P27986 whole entry partner): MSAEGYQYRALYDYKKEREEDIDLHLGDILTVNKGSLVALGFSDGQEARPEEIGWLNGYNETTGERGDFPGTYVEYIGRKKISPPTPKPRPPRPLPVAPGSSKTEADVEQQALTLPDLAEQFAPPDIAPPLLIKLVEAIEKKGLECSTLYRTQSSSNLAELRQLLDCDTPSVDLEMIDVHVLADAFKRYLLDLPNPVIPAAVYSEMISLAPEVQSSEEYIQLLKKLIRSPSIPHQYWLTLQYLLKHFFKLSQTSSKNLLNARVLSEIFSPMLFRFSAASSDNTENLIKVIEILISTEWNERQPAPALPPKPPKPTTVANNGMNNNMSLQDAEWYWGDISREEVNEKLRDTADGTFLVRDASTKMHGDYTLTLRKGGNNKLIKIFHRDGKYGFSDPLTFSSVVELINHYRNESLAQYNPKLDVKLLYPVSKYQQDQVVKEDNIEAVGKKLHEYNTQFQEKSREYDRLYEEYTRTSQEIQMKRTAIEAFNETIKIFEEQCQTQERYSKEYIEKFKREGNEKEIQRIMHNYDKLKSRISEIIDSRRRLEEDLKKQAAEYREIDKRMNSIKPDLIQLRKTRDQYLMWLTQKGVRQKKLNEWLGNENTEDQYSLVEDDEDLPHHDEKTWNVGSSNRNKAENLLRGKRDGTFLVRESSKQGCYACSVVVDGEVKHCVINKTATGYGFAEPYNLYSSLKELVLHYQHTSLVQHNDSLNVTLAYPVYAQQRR

| Structure (SMILES) | IC50 (PI3Kα) [nM] | IC50 (CK2 protein kinase) [nM] |
| --- | --- | --- |
| CC1=Nc2ccc(-c3ccc4nccc(-c5ccncc5)c4c3)cc2S(=O)(=O)N1 [Example 154] | 316 |  |
| c1cc(-c2ccnc3ccc(-c4ccc5[nH]ncc5c4)cc23)ccn1 [Example 156] | 79 |  |
| c1cc(-c2ccnc3ccc(-c4nc5ncncc5[nH]4)cc23)ccn1 [Example 224] | 1000 |  |
| O=c1cc(N2CCOCC2)oc2c(-c3ccccc3)cccc12 [LY294002] |  | 5000 to 10000 |

The next lines start with results.

| IC50 (PI3Kα) [nM] | Structure (SMILES) | IC50 (CK2 protein kinase) [nM] |
| --- | --- | --- |
| 1.6 | O=S(=O)(Nc1cc(-c2ccc3nccc(-c4ccncc4)c3c2)c[n+]([O-])c1Cl)c1ccccc1 [Example 249] |  |
| 0.8 | Cc1ccccc1S(=O)(=O)Nc1cc(-c2ccc3nccc(-c4ccncc4)c3c2)cnc1Cl [Example 252] |  |
| 7.9 | NC(=O)Cn1cc(-c2ccnc3ccc(-c4cncc(S(=O)(=O)Nc5ccc(F)cc5F)c4)cc23)cn1 [Example 263] |  |
| 2.5 | COc1ncc(-c2ccc3nccc(C4CCCC4)c3c2)cc1NS(=O)(=O)c1ccccc1 [Example 289] |  |
